Source: patent US20250149635A1, “SILICATE PLATFORM AS WEAKLY-COORDINATING ANIONS FOR DIVERSE ORGANOMETALLIC TRANSFORMATIONS AND ELECTROCHEMICAL APPLICATIONS” (California Institute of Technology, priority 2023, published 2025)
One block for each molecule: values may come before it.

What was measured:
[1] = Cyclic voltammetry of Mg deposition/stripping in DME; assay type: physicochemical; conditions: for deposition overpotential: 0.25-0.26 M in DME with 10 mM Me2Mg, Pt wire WE, 25 mVs^−1; for oxidative stability: in DME, with 10 mM Me2Mg, sweep to 4.75 V
Method: FIG. 14A: Cyclic voltammetry experiments of 0.26 M 1-[Mg(DME)3] with 10 mM of Me2Mg. WE: Pt wire; CE: Mg strip; RE: Mg strip; Scan rate: 25 mVs^−1; Cycling protocol: −0.8 V to 4.0 V, 100 cycles. FIG. 14B: Cycles 1, 25, 50, 75, 100. FIG. 14C: Coulombic efficiency cycles 1-100; Cyclic voltammetry experiments of 0.26 M 1-[Mg(DME)3] with 10 mM of Me2Mg.
FIG. 15A: Cyclic voltammetry experiments of 0.25 M 2-[Mg(DME)3] with 10 mM of Me2Mg. WE: Pt wire; CE: Mg strip; RE: Mg strip; Scan rate: 25 mVs^−1; Cycling protocol: −0.8 V to 3.8 V, 100 cycles; FIG. 15B: Cycles 1, 25, 50, 75, 100. FIG. 15C: Coulombic efficiency cycles 1-100; Cyclic voltammetry experiments of 0.25 M 2-[Mg(DME)3] with 10 mM of Me2Mg.
FIG. 20: Cyclic voltammetry experiments of 0.26 M 1-[Mg(DME)3] in DME.WE: Pt wire; CE: Mg strip; RE: Mg strip; Scan rate: 25 mVs^−1; Cycling protocol: −0.8 V to 4.0 V, 200 cycles.
Cyclic voltammetry experiments of 1-[Mg(DME)3] were run in an empty N2-filled glovebox fitted with a purifier system that consists of a purifier cartridge (ca. 50% activated 4 Å molecular sieves and activated Cu catalyst) and a circulator fan, no solvent or chemicals were stored in the glovebox. Electrolyte solutions were prepared in a separate glovebox by dissolving 1-[Mg(DME)3] in 500 μL of DME and stirred with a new Teflon stir bar until complete dissolution. DME and 1-[Mg(DME)3] were only used with the glovebox circulation purifier turned off after extensive (minimum 20 minutes at […] above atmospheric pressure to ensure full atmosphere exchange) purging of the glovebox atmosphere to avoid cross-contamination with other atmospheric solvents. Upon complete dissolution of the electrolyte, the electrolyte solution was sealed and transported to the electrochemistry glovebox immediately before electrochemical experiments were performed.
Mg electrodes (99.9%, MTI) were polished with a razor blade immediately before use. Pt electrodes (wire, 0.5 mm diameter, 99.995%, Thermo Scientific) were soaked in concentrated HNO3 for at least 72 hours, rinsed with deionized water at least thrice, annealed with an H2 torch, and immediately brought into the glovebox in a flame-dried 20 mL scintillation vial while hot. Cyclic voltammetry experiments of 1-[Mg(DME)3] were performed in glass cells with 0.5 mL of electrolyte. A Pt wire served as the working electrode (WE), and Mg foils were the counter and reference electrodes (CE and RE). Experiments of 1-[Mg(DME)3] were conducted on either a Biologic SP150 potentiostat or a Biologic VSP-300 potentiostat.

[2] = Cyclic and linear sweep voltammetry of 0.1 M tetra-n-butylammonium salts in MeCN (electrochemical stability window); assay type: physicochemical
Text: FIG. 12: Cyclic voltammetry and linear sweep voltammetry experiments of 0.1 M 1-[Bu4N] and [Bu4N][PF6] in MeCN; Current shown were normalized to the highest current in each experiment; FIG. 12A: Cyclic voltammogram of 1-[Bu4N] in MeCN; WE: Glassy carbon; CE: Pt wire; RE: Ag wire; scan rate=100 mVs^−1; FIGS. 12B and 12C: Linear sweep voltammograms of 0.1 M 1-[Bu4N] and [Bu4N][PF6] in MeCN; WE: Glassy carbon; CE: Pt wire; RE: Ag wire; scan rate=50 mVs^−1.
Linear sweep voltammetry experiments of 1-[Bu4N] and [Bu4N][PF6] were performed under an N2 atmosphere using a Pine Instrument Company AFCBP1 bipotentiostat using the AfterMath software package. Linear sweep voltammograms were recorded in the glovebox at 25° C. with an auxiliary Pt-coil counter electrode, Ag-wire reference electrode, and 3.0 mm glassy carbon working electrode (BASI). The electrolyte solution was 0.1 M of the corresponding tetra-n-butylammonium salt in MeCN. All reported values are referenced to an internal ferrocene/ferrocenium couple.

[3] = calculated, literature ref. 47; cited from earlier work
[4] = C2H4/CO copolymerization trials with cationic Pd catalyst
Method: In a N2 glovebox, Pd catalyst (10 μmol) was dissolved in toluene (10 mL) was transferred to a Fisher-Porter vessel. The reactor was removed from the glovebox and connected to a C2H4/CO gas feed. The N2 atmosphere was replaced with a 1:1 mixture of C2H4/CO (flow rate 300 sccm for each gas) by pressurizing the vessel to 100 psi and venting 3×. After pressurizing to 100 psi, polymerization was run for 3 hr at RT. The reaction was quenched upon exposure to air, and the polymer was precipitated by stirring with acidic methanol (0.6 mL HCl/10 mL MeOH). The polymer was collected and dried under vacuum overnight.
NMRs were recorded in a mixture of 1, 1, 1, 3, 3, 3-hexafluoro-2-propanol and C6D6 (4:1) at RT.

[5] = Solubility determination by 19F NMR with fluorobenzene internal standard
Method: Each sample was filtered, and 600 μL was transferred to a new vial. Fluorobenzene (5 μL) was added as an internal standard to the filtered solution and mixed thoroughly via pipette.

[6] = 0.1 M Bu4N salt in MeCN, glassy carbon WE
[7] = 10 μmol Pd catalyst in toluene, 100 psi 1:1 C2H4/CO, 3 hr at RT

deposition overpotential [1]: ca. −420 mV vs. Mg/Mg^2+
reductive overpotential, stabilized over continuous cycling ([1]; 0.26 M in DME, absence of Me2Mg): ca. 400 mV
coulombic efficiency, stabilized with cycling ([1]; 0.26 M in DME, absence of Me2Mg, −0.8 to 2.0 V vs. Mg/Mg^2+): ca. 96%
Molecule: COCCOC.COCCOC.COCCOC.C[Si-]12(OC(C(F)(F)F)(C(F)(F)F)C(C(F)(F)F)(C(F)(F)F)O1)OC(C(F)(F)F)(C(F)(F)F)C(C(F)(F)F)(C(F)(F)F)O2.C[Si-]12(OC(C(F)(F)F)(C(F)(F)F)C(C(F)(F)F)(C(F)(F)F)O1)OC(C(F)(F)F)(C(F)(F)F)C(C(F)(F)F)(C(F)(F)F)O2.[Mg+2] [1-[Mg(DME)3], [Mg(DME)3][^MeSi^F24]2]

Molecule: F[P-](F)(F)(F)(F)F [PF6^−, reference compound]
reductive stability [2, 6]: ca. −3.1 V vs. Fc/Fc^+

Molecule: [F][Sb]([F])([F])([F])[F] [SbF5]
fluoride affinity [3]: 501 kJ/mol

Molecule: CC#N.FC(F)(F)c1cc([B-](c2cc(C(F)(F)F)cc(C(F)(F)F)c2)(c2cc(C(F)(F)F)cc(C(F)(F)F)c2)c2cc(C(F)(F)F)cc(C(F)(F)F)c2)cc(C(F)(F)F)c1.[CH3][Pd+]1[PH](c2ccccc2)(c2ccccc2)CC[PH]1(c1ccccc1)c1ccccc1 [[Pd(dppe)(NCMe)Me]^+[BAr^F24]^−, [Pd(dppe)(NCMe)Me][BAr^F24], reference compound]
Activity [4, 7]: 2.28 g/mmol/h
Polymer Yield [4, 7]: 68.6
Activity ([4]; 100 psi of C2H4/CO): 2.3 g/mmol/h

oxidative stability [1]: ca. 4.2 V vs. Mg/Mg^2+
oxidative stability (stable up to) [2, 6]: up to 4.5 V vs. Fc/Fc^+
reductive stability [2, 6]: ca. −3.1 V vs. Fc/Fc^+
electrochemical stability window ([2]; in MeCN): 7.5 V
oxidative stability surpassing that of PF6^− ([2]; in MeCN, versus [Bu4N][PF6]): ca. 1 V
Molecule: C[Si-]12(OC(C(F)(F)F)(C(F)(F)F)C(C(F)(F)F)(C(F)(F)F)O1)OC(C(F)(F)F)(C(F)(F)F)C(C(F)(F)F)(C(F)(F)F)O2 [[^MeSi^F24]]

Molecule: (MeCN)Si(O2C6F12)2
fluoride affinity [3]: 474 kJ/mol

electrochemical stability window ([2]; in MeCN): ca. 7.5 V
Molecule: [Bu4N][^MeSi^F24] [1-[Bu4N]]

solubility in CH2Cl2 (in words) ([5]; CH2Cl2): high solubility
solubility in benzene ([5]; in benzene, stirred 16 hr, filtered, 19F NMR): 100 µM
solubility in dichloromethane ([5]; in dichloromethane, 19F NMR): 400 µM
Molecule: [K][^tBu2ArSi^F24] [3-[K]]

deposition overpotential [1]: ca. −350 mV vs. Mg/Mg^2+
oxidative stability [1]: ca. 4.05 V vs. Mg/Mg^2+
Molecule: [Mg(DME)3][^PhSi^F24]2 [2-[Mg(DME)3]]

Molecule: [Pd(dppe)(NCMe)Me][^tBu2ArSi^F24] [3-[Pd(dppe)(NCMe)Me]]
Activity [4, 7]: 1.67 g/mmol/h
Polymer Yield [4, 7]: 50.2
Activity ([4]; 100 psi of C2H4/CO): 1.7 g/mmol/h

Molecule: [Pd(dppe)(NCMe)Me]^+[^MeSi^F24]
Activity [4, 7]: 1.06 g/mmol/h
Polymer Yield [4, 7]: 31.9
